How the values were obtained:
Homo sapiens [1] = species on record: Homo sapiens; assay: Inhibitory concentration against U 46619 induced aggregation of human washed platelets(WP); IA=Inactive; assay type: functional
Homo sapiens [2] = species on record: Homo sapiens; assay: Inhibitory concentration against U 46619 induced aggregation of human platelet rich plasma(PRP); IA=Inactive; assay type: functional
Thromboxane-A synthase [3] = biological target: T1, Thromboxane-A synthase (Homo sapiens, UniProt P24557); assay: Inhibitory concentration against thromboxane synthase enzyme; IA=Inactive
T1 sequence (P24557 whole entry): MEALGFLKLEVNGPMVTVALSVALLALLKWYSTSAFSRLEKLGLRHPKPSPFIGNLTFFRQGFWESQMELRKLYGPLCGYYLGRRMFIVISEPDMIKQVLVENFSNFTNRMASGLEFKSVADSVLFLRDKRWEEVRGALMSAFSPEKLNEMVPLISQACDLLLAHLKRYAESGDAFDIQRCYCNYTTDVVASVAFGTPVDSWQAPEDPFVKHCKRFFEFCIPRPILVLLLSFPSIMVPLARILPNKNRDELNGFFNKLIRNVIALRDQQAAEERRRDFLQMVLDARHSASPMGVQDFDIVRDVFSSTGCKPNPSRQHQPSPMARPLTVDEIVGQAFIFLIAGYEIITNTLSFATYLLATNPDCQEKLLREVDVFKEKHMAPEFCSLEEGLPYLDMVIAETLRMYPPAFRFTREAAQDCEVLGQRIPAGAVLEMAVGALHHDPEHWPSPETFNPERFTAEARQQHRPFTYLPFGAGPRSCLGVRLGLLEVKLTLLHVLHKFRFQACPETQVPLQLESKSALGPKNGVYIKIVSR

Homo sapiens [4] = species on record: Homo sapiens; assay: Inhibitory concentration against U 46619 induced aggregation of human platelet rich plasma(PRP); assay type: functional
Homo sapiens [5] = species on record: Homo sapiens; assay: Inhibitory concentration against U 46619 induced aggregation of human washed platelets(WP); assay type: functional
Thromboxane-A synthase [6] = biological target: T1, Thromboxane-A synthase; assay: Inhibitory concentration against thromboxane synthase enzyme

SMILES | IC50 (Homo sapiens [1]) | IC50 (Homo sapiens [2]) | IC50 (Thromboxane-A synthase [3]) | IC50 (Homo sapiens [4]) [nM] | IC50 (Homo sapiens [5]) [nM] | IC50 (Thromboxane-A synthase [6]) [nM]
O=C(O)CCCCCCc1cnccc1NS(=O)(=O)c1ccc(Cl)cc1 | Not Active | Not Active | Not Active |  |  | 
O=C(O)CCCCCCc1cnccc1CCCNS(=O)(=O)c1ccc(Cl)cc1 |  |  |  | 7970 | 1440 | 15

Second part, the molecule after the results:

IC50 (Homo sapiens [1]) | IC50 (Homo sapiens [2]) | IC50 (Thromboxane-A synthase [3]) | IC50 (Homo sapiens [4]) [nM] | IC50 (Homo sapiens [5]) [nM] | IC50 (Thromboxane-A synthase [6]) [nM] | SMILES
 |  |  | 1080 | 220 | 66 | O=C(O)CCCCCc1cnccc1CNS(=O)(=O)c1ccc(Cl)cc1
 |  |  | 670 | 36 | 100 | O=C(O)CCCCCc1cnccc1CCCNS(=O)(=O)c1ccc(Cl)cc1
 |  |  | 440 | 94 | 80 | O=C(O)CCCCCCc1cnccc1CCNS(=O)(=O)c1ccc(Cl)cc1
 |  |  | 610 | 195 | 43 | O=C(O)CCCCCc1cnccc1CCNS(=O)(=O)c1ccc(Cl)cc1

Source: ChEMBL document CHEMBL1150530, “Thromboxane receptor antagonism combined with thromboxane synthase inhibition. 6. 4-substituted 3-pyridinylalkanoic acids” (Bioorg Med Chem Lett, 1992)
